{"source": "patent US20070105910A1", "about": "“Medicinal composition” (priority 2003, published 2007)", "experiment": "Repeated oral administration test for 10 days using rats: blood hemoglobin (Hb)", "format": "in vivo", "conditions": "SD rats; after 10 days oral administration; pioglitazone hydrochloride 240 mg/kg/day, benfotiamine 100 mg/kg/day where combined", "protocol": "After termination of the administration, the blood was collected from the rats and the hemoglobin (Hb) value was determined. Then, the rats were killed, and their hearts were weighed (relative weight).", "note": "Counter-ions that a name gives are not always drawn."}
{"smiles": "CCc1ccc(CCOc2ccc(CC3SC(=O)NC3=O)cc2)nc1", "note": "(stereo not shown) [Pioglitazone HCl, pioglitazone hydrochloride]", "values": [{"measurement": "Blood Hb conc. after administration", "result": 13.6, "unit": "g/dL"}]}
